Test results: ChEMBL document CHEMBL3351403, “Lead identification of benzimidazolone and azabenzimidazolone arylsulfonamides as CC-chemokine receptor 4 (CCR4) antagonists” (Bioorg Med Chem, 2014)

experiment: Lipophilicity, log D of the compound at pH 7.4 by chromatography; format: physicochemical; conditions: buffer

Row | Structure (SMILES) | chromatographic logD
1 | COc1cccc2c1c(NS(=O)(=O)c1cccc(Cl)c1Cl)nn2C | 5.3
2 | COc1cc2c(cc1NS(=O)(=O)c1cccc(Cl)c1Cl)n(C)c(=O)n2C | 4.4
3 | COc1cc2c(cc1NS(=O)(=O)c1cccc(Cl)c1Cl)[nH]c(=O)n2CC(N)=O | 2.5
4 | COc1cc2[nH]c(=O)n(CC(N)=O)c2cc1NS(=O)(=O)c1cccc(Cl)c1Cl | 2.4
5 | COc1cc2c(cc1NS(=O)(=O)c1cccc(Cl)c1Cl)[nH]c(=O)n2C1COC1 | 4.6
6 | CCCn1c(=O)[nH]c2cc(NS(=O)(=O)c3cccc(Cl)c3Cl)c(OC)cc21 | 3.2
7 | COc1cc2c(cc1NS(=O)(=O)c1cccc(Cl)c1Cl)[nH]c(=O)n2CCN(C)C | 2.6
8 | COc1cc2c(cc1NS(=O)(=O)c1cccc(Cl)c1Cl)[nH]c(=O)n2C(CO)CO | 2.1
9 | COc1cc2c(cc1NS(=O)(=O)c1cccc(Cl)c1Cl)[nH]c(=O)n2C1CNC1 | 3
10 | COc1cc2c(cc1NS(=O)(=O)c1cccc(Cl)c1Cl)[nH]c(=O)n2C1CN(C(C)=O)C1 | 3.7

Now from value to molecule:

Row | chromatographic logD | Structure (SMILES)
11 | 3.2 | COc1cc2[nH]c(=O)[nH]c2cc1NS(=O)(=O)c1cccc(Cl)c1Cl
12 | 3.8 | COc1cc2c(cc1NS(=O)(=O)c1cccc(Cl)c1Cl)[nH]c(=O)n2C
13 | 3.7 | COc1cc2[nH]c(=O)n(C)c2cc1NS(=O)(=O)c1cccc(Cl)c1Cl
14 | 4.7 | COc1cc2c(cc1NS(=O)(=O)c1cccc(Cl)c1Cl)[nH]c(=O)n2C(C)C
15 | 2.4 | COc1cc2[nH]c(=O)[nH]c2nc1NS(=O)(=O)c1cccc(Cl)c1Cl
16 | 3.2 | COc1nc2[nH]c(=O)[nH]c2cc1NS(=O)(=O)c1cccc(Cl)c1Cl
